Experimental data reported in patent US8754242B2, “Herbicides” (Syngenta Crop Protection LLC, priority 2007, dated 2014).

Key:
Assay type in all cases: in vivo
Avena fatua (AVEFA) [1] = assay: Test Example 1 post-emergence herbicidal activity; settings: 360 h, rate 125 g/ha, evaluated 15 days later, read-out: Post-emergence activity AVEFA (100=total damage to plant; 0=no damage to plant)
Procedure, shortened: (§1)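 Pots sown in standard soil were sprayed 1 day (pre-emergence) or 10 days (post-emergence) after sowing with an aqueous spray from an acetone/Emulsogen EL/N-methylpyrrolidone-based formulation. Visual damage was scored 20 days (pre) or 15 days (post) later in the greenhouse, 0 = none to 100 = total.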

[2] = system: Echinochloa crus-galli (ECHCG); assay: Test Example 1 post-emergence herbicidal activity; settings: 360 h, rate 125 g/ha, evaluated 15 days later, read-out: Post-emergence activity ECHCG (100=total damage to plant; 0=no damage to plant)
Procedure, shortened: as §1

Setaria faberi (SETFA) [3] = assay: Test Example 1 post-emergence herbicidal activity; settings: 360 h, rate 125 g/ha, evaluated 15 days later, read-out: Post-emergence activity SETFA (100=total damage to plant; 0=no damage to plant)
Procedure, shortened: as §1

[4] = system: Alopecurus myosuroides (ALOMY); assay: Test Example 1 post-emergence herbicidal activity; settings: 360 h, rate 125 g/ha, evaluated 15 days later, read-out: Post-emergence activity ALOMY (100=total damage to plant; 0=no damage to plant)
Procedure, shortened: as §1

[5] = system: Digitaria sanguinalis (DIGSA); assay: Test Example 1 post-emergence herbicidal activity; settings: rate 125 g/ha, evaluated 15 days later; for pest or weed control at 125 g/ha: 360 h, read-out: Post-emergence activity DIGSA (100=total damage to plant; 0=no damage to plant)
Procedure, shortened: as §1

Lolium perenne (LOLPE) [6] = assay: Test Example 1 post-emergence herbicidal activity; settings: 360 h, rate 125 g/ha, evaluated 15 days later, read-out: Post-emergence activity LOLPE (100=total damage to plant; 0=no damage to plant)
Procedure, shortened: as §1

Avena fatua (AVEFA) [7] = assay: Test Example 1 pre-emergence herbicidal activity; settings: rate 250 g/ha, evaluated 20 days later; for pest or weed control at 250 g/ha: Avena fatua, 480 h, read-out: Pre-emergence activity AVEFA (100=total damage to plant; 0=no damage to plant)
Procedure, shortened: as §1

[8] = system: Echinochloa crus-galli (ECHCG); assay: Test Example 1 pre-emergence herbicidal activity; settings: Echinochloa crus-galli, 480 h, rate 250 g/ha, evaluated 20 days later, read-out: Pre-emergence activity ECHCG (100=total damage to plant; 0=no damage to plant)
Procedure, shortened: as §1

Setaria faberi (SETFA) [9] = assay: Test Example 1 pre-emergence herbicidal activity; settings: Setaria faberi, 480 h, rate 250 g/ha, evaluated 20 days later, read-out: Pre-emergence activity SETFA (100=total damage to plant; 0=no damage to plant)
Procedure, shortened: as §1

[10] = system: Alopecurus myosuroides (ALOMY); assay: Test Example 1 pre-emergence herbicidal activity; settings: Alopecurus myosuroides, 480 h, rate 250 g/ha, evaluated 20 days later, read-out: Pre-emergence activity ALOMY (100=total damage to plant; 0=no damage to plant)
Procedure, shortened: as §1

[11] = system: Digitaria sanguinalis (DIGSA); assay: Test Example 1 pre-emergence herbicidal activity; settings: Digitaria sanguinalis, 480 h, rate 250 g/ha, evaluated 20 days later, read-out: Pre-emergence activity DIGSA (100=total damage to plant; 0=no damage to plant)
Procedure, shortened: as §1

Lolium perenne (LOLPE) [12] = assay: Test Example 1 pre-emergence herbicidal activity; settings: Lolium perenne, 480 h, rate 250 g/ha, evaluated 20 days later, read-out: Pre-emergence activity LOLPE (100=total damage to plant; 0=no damage to plant)
Procedure, shortened: as §1

Row | Structure (SMILES) | pest or weed control at 125 g/ha (Avena fatua (AVEFA) [1]) | pest or weed control at 125 g/ha [2] | pest or weed control at 125 g/ha (Setaria faberi (SETFA) [3]) | pest or weed control at 125 g/ha [4] | pest or weed control at 125 g/ha [5] | pest or weed control at 125 g/ha (Lolium perenne (LOLPE) [6]) | pest or weed control at 250 g/ha (Avena fatua (AVEFA) [7]) | pest or weed control at 250 g/ha [8] | pest or weed control at 250 g/ha (Setaria faberi (SETFA) [9]) | pest or weed control at 250 g/ha [10] | pest or weed control at 250 g/ha [11] | pest or weed control at 250 g/ha (Lolium perenne (LOLPE) [12]) | Post-emergence activity DIGSA (100=total damage to plant; 0=no damage to plant) [5] | Pre-emergence activity AVEFA (100=total damage to plant; 0=no damage to plant) (Avena fatua (AVEFA) [7])
1 | CCC(C)C(=O)OC1=C(c2c(C)cc(C)cc2C)C(=O)[C@@H]2[C@H]1[C@H]1CC[C@@H]2O1 (stereo partly drawn) [Example P9] | 90% | 90% | 80% | 100% | 80% | 100% | 100% | 80% | 80% | 100% | 90% | 100% | – | –
2 | Cc1cc(C)c(C2=C(OC(=O)C(C)C)[C@H]3[C@@H](C2=O)[C@@H]2CC[C@H]3O2)c(C)c1 [Example P10] | 90% | 100% | 80% | 100% | 80% | 100% | 100% | 100% | 80% | 100% | 100% | 100% | – | –
3 | CCc1cc(C)cc(CC)c1C1=C(OC(=O)CCCCCCC(=O)OC)[C@H]2[C@@H](C1=O)[C@@H]1CC[C@H]2O1 [Example P16] | 90% | 100% | 100% | 100% | 100% | 100% | 90% | 100% | 100% | 100% | 100% | 90% | – | –
4 | CCc1cc(C)cc(CC)c1C1=C(OC(=O)CC(C)C)[C@H]2[C@@H](C1=O)[C@@H]1CC[C@H]2O1 [Example P19] | 100% | 100% | 100% | 100% | 100% | 100% | 100% | 100% | 100% | 100% | 100% | 100% | – | –
5 | C=CCC(=O)OC1=C(c2c(CC)cc(C)cc2CC)C(=O)[C@@H]2[C@H]1[C@H]1CC[C@@H]2O1 [Example P23] | 90% | 100% | 80% | 100% | 70% | 90% | 90% | 100% | 100% | 80% | 100% | 100% | – | –
6 | CCc1cc(C)cc(CC)c1C1=C(OC(=O)C(C)C)[C@H]2[C@@H](C1=O)[C@@H]1CC[C@H]2O1 [Example P26] | 100% | 100% | 100% | 100% | 100% | 90% | 90% | 100% | 100% | 100% | 100% | 100% | – | –
7 | CCc1cc(C)cc(C)c1C1=C(O)[C@H]2[C@@H](C1=O)[C@@H]1CC[C@H]2O1 [Example T2] | 90% | 100% | 80% | 100% | 100% | 100% | 100% | 100% | 90% | 100% | 100% | 100% | – | –
8 | CCc1cc(C)cc(CC)c1C1=C(O)[C@H]2[C@@H](C1=O)[C@@H]1C=C[C@H]2O1 [Example T4] | 90% | 100% | 80% | 80% | 80% | 90% | 90% | 100% | 90% | 90% | 100% | 100% | – | –
9 | CCc1cc(CC)c(C2=C(O)[C@H]3[C@@H](C2=O)[C@@H]2CC[C@H]3O2)c(CC)c1 [Example T5] | 70% | 100% | 90% | 70% | 100% | 80% | 80% | 100% | 80% | 100% | 100% | 100% | – | –
10 | Cc1cc(C)c(C2=C(O)[C@H]3[C@@H](C2=O)[C@]2(C)CC[C@@]3(C)O2)c(C)c1 [Example T6] | 80% | 90% | 80% | 80% | 90% | 80% | 30% | 90% | 80% | 80% | 90% | 100% | – | –
11 | CCc1cc(C)cc(CC)c1C1=C(O)[C@H]2[C@@H](C1=O)[C@]1(C)CC[C@@]2(C)O1 [Example T7] | 90% | 90% | 90% | 100% | 70% | 90% | 80% | 90% | 90% | 100% | 80% | 100% | – | –
12 | CCc1cc(C)cc(CC)c1C1=C(O)[C@H]2[C@@H](C1=O)[C@@H]1CC[C@@]2(C)O1 [Example T8] | 100% | 100% | 100% | 100% | 100% | 100% | 90% | 100% | 100% | 100% | 100% | 100% | – | –
13 | CCc1cc(C)cc(CC)c1C1=C(O)[C@H]2[C@@H](C1=O)[C@@H]1CC[C@H]2O1 [Example T10] | 70% | 80% | 80% | 70% | – | 80% | – | 90% | 80% | 80% | 80% | 100% | 50 | 70
